According to ChEMBL document CHEMBL2146451, “Antidiabetic activity of some pentacyclic acid triterpenoids, role of PTP-1B: in vitro, in silico, and in vivo approaches” (Eur J Med Chem, 2011):

Legend:
Rattus norvegicus [1] = assay: Antidiabetic activity in STZ-nicotinamide diabetic Wistar rat T2DM model assessed as decrease in blood glucose level at 5 mg/kg, po after 3 hrs by enzymatic glucose oxidase method relative to control; type: functional; design: scale not given: the % may be the effect or the level left
Rattus norvegicus [2] = assay: Antidiabetic activity in STZ-nicotinamide diabetic Wistar rat T2DM model assessed as decrease in blood glucose level at 5 mg/kg, po after 1 hr by enzymatic glucose oxidase method relative to control; type: functional; design: scale not given: the % may be the effect or the level left
Rattus norvegicus [3] = assay: Antidiabetic activity in STZ-nicotinamide diabetic Wistar rat T2DM model assessed as decrease in blood glucose level at 5 mg/kg, po after 7 hrs by enzymatic glucose oxidase method relative to control; type: functional; design: scale not given: the % may be the effect or the level left
Rattus norvegicus [4] = assay: Antidiabetic activity in STZ-nicotinamide diabetic Wistar rat T2DM model assessed as decrease in blood glucose level at 5 mg/kg, po after 5 hrs by enzymatic glucose oxidase method relative to control; type: functional; design: scale not given: the % may be the effect or the level left
[5] = target: T1, Low molecular weight phosphotyrosine protein phosphatase (Homo sapiens, UniProt P24666); assay: Inhibition of human recombinant LMW-PTP2 expressed in Escherichia coli TB1 using p-nitrophenyl phosphate as substrate after 1 hr
T1 sequence (P24666 whole entry): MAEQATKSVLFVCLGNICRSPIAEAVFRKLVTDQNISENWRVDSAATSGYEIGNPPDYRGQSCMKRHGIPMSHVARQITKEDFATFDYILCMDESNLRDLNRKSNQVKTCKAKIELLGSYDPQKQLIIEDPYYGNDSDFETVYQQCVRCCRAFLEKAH

Rattus norvegicus [6] = assay: Antidiabetic activity in STZ-nicotinamide diabetic Wistar rat T2DM model assessed as decrease in blood glucose level at 50 mg/kg, po after 1 hr by enzymatic glucose oxidase method relative to control; type: functional; design: scale not given: the % may be the effect or the level left
[7] = Inhibition of yeast LMW-PTP1 expressed in Escherichia coli TB1 using p-nitrophenyl phosphate as substrate after 1 hr; design: species or system Saccharomyces cerevisiae
Rattus norvegicus [8] = assay: Antidiabetic activity in STZ-nicotinamide diabetic Wistar rat T2DM model assessed as decrease in blood glucose level at 50 mg/kg, po after 5 hrs by enzymatic glucose oxidase method relative to control; type: functional; design: scale not given: the % may be the effect or the level left
Rattus norvegicus [9] = assay: Antidiabetic activity in STZ-nicotinamide diabetic Wistar rat T2DM model assessed as decrease in blood glucose level at 50 mg/kg, po after 3 hrs by enzymatic glucose oxidase method relative to control; type: functional; design: scale not given: the % may be the effect or the level left
[10] = target: Receptor-type tyrosine-protein phosphatase F (Homo sapiens, UniProt P10586); assay: Inhibition of human recombinant LAR expressed in Escherichia coli TB1 using p-nitrophenyl phosphate as substrate after 1 hr
Rattus norvegicus [11] = assay: Antidiabetic activity in STZ-nicotinamide diabetic Wistar rat T2DM model assessed as decrease in blood glucose level at 50 mg/kg, po after 7 hrs by enzymatic glucose oxidase method relative to control; type: functional; design: scale not given: the % may be the effect or the level left
[12] = target: T1, Low molecular weight phosphotyrosine protein phosphatase; assay: Inhibition of human recombinant LMW-PTP1 expressed in Escherichia coli TB1 using p-nitrophenyl phosphate as substrate after 1 hr
Mus musculus = species: Mus musculus; assay: Antidiabetic activity in normal Swiss mouse assessed as reduction of blood glucose level by glucose tolerance test relative to control; type: functional; design: scale not given: the % may be the effect or the level left
[13] = target: T2, Tyrosine-protein phosphatase non-receptor type 1 (Homo sapiens, UniProt P18031)
T2 sequence (P18031 whole entry): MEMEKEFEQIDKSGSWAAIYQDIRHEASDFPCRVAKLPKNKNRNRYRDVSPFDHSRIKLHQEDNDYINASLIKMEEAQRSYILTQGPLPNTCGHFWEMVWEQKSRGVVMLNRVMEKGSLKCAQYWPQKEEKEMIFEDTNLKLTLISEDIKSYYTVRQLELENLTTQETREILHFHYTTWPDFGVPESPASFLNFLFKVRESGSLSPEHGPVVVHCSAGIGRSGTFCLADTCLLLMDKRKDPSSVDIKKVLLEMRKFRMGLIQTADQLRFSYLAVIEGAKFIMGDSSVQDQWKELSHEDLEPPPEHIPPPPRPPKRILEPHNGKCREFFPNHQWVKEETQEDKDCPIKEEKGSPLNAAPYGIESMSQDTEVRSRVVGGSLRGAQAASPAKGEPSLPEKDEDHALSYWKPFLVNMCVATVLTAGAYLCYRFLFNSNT
Description: Inhibition of human recombinant PTP-1B expressed in Escherichia coli TB1 using p-nitrophenyl phosphate as substrate after 1 hr

[14] = target: T2, Tyrosine-protein phosphatase non-receptor type 1; assay: Mixed type inhibition of human recombinant PTP-1B expressed in Escherichia coli TB1 using p-nitrophenyl phosphate as substrate

Receptor-type tyrosine-protein phosphatase F, sequence (P10586 whole entry): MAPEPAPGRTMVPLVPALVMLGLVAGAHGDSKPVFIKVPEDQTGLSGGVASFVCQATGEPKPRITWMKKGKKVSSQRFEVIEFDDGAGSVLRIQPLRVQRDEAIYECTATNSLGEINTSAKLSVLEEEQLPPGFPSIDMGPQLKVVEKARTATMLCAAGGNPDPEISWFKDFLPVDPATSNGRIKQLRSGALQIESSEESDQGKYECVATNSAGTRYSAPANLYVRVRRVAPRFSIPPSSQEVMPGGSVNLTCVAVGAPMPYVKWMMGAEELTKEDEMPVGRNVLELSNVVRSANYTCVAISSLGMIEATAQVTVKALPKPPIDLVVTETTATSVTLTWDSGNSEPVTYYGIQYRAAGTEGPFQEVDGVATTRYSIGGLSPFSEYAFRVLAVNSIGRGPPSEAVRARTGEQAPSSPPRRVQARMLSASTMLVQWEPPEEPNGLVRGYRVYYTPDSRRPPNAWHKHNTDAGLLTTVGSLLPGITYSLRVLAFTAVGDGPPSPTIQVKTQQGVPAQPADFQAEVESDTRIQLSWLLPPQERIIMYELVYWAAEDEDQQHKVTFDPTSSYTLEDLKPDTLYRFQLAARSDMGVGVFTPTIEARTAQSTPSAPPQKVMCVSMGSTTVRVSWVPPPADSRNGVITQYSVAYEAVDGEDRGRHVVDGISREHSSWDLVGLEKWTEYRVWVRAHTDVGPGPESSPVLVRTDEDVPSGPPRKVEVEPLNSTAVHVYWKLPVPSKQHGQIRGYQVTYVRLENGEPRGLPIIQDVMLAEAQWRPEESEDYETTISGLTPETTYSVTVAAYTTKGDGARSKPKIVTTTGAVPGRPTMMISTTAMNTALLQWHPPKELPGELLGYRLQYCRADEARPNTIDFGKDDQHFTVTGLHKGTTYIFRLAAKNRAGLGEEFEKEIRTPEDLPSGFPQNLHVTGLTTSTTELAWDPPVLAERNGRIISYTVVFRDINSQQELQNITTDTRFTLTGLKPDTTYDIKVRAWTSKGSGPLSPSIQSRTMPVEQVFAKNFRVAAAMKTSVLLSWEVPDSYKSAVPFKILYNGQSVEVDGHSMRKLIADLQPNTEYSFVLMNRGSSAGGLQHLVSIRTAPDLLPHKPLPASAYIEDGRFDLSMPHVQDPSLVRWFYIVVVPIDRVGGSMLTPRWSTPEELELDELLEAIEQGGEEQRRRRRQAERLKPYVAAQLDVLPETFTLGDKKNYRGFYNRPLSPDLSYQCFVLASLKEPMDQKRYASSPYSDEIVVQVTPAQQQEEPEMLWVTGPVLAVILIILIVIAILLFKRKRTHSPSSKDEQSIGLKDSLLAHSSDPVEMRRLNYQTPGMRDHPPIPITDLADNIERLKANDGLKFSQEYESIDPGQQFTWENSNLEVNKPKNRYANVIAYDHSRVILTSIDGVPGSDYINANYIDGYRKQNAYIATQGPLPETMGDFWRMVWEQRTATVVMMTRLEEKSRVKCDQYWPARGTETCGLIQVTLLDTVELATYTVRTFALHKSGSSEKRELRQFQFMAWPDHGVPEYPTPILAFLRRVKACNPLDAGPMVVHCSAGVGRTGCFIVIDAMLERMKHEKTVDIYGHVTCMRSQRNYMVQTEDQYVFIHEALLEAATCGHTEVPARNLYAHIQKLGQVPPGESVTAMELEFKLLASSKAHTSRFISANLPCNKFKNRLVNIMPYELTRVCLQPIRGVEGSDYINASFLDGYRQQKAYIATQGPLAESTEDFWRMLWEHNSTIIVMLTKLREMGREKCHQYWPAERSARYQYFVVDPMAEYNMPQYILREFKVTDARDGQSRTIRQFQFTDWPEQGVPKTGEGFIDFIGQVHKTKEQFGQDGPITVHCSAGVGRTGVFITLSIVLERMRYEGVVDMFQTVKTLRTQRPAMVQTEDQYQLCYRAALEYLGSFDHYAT

| IC50 [5] [µM] | IC50 [7] [µM] | IC50 [10] [µM] | IC50 [12] [µM] | IC50 [13] [µM] | Ki [14] [µM] | Structure (SMILES) | Activity (Rattus norvegicus [1]) [%] | Activity (Rattus norvegicus [2]) [%] | Activity (Rattus norvegicus [3]) [%] | Activity (Rattus norvegicus [4]) [%] | Activity (Rattus norvegicus [6]) [%] | Activity (Rattus norvegicus [8]) [%] | Activity (Rattus norvegicus [9]) [%] | Activity (Rattus norvegicus [11]) [%] | Activity (Mus musculus) [%] |
| --- | --- | --- | --- | --- | --- | --- | --- | --- | --- | --- | --- | --- | --- | --- | --- |
| 11.1 | 20 | 3.8 | 7.2 | – | – | C[C@H]1[C@H](C)CC[C@]2(C(=O)O)CC[C@]3(C)C(=CC[C@@H]4[C@@]5(C)CC[C@H](O)C(C)(C)[C@@H]5CC[C@]43C)[C@H]12 [URSOLIC ACID] | – | – | – | – | 13.5 | 25.7 | 24.4 | 38 | – |
| 22.9 | 44.8 | 11.8 | 21.2 | – | – | CC1(C)CC[C@]2(C(=O)O)CC[C@]3(C)C(=CC[C@@H]4[C@@]5(C)CC[C@H](O)C(C)(C)[C@@H]5CC[C@]43C)[C@@H]2C1 [OLEANOLIC_ACID] | – | – | – | – | 26.9 | 23.2 | 14.1 | 21.9 | 22 |

Further lines, the compound ahead of its results:

| Structure (SMILES) | IC50 [5] [µM] | IC50 [7] [µM] | IC50 [10] [µM] | IC50 [12] [µM] | IC50 [13] [µM] | Ki [14] [µM] | Activity (Rattus norvegicus [1]) [%] | Activity (Rattus norvegicus [2]) [%] | Activity (Rattus norvegicus [3]) [%] | Activity (Rattus norvegicus [4]) [%] | Activity (Rattus norvegicus [6]) [%] | Activity (Rattus norvegicus [8]) [%] | Activity (Rattus norvegicus [9]) [%] | Activity (Rattus norvegicus [11]) [%] | Activity (Mus musculus) [%] |
| --- | --- | --- | --- | --- | --- | --- | --- | --- | --- | --- | --- | --- | --- | --- | --- |
| COc1ccc(Cl)cc1C(=O)NCCc1ccc(S(=O)(=O)NC(=O)NC2CCCCC2)cc1 [GLYBURIDE] | – | – | – | – | – | – | 36.3 | 20.4 | 43.6 | 37.5 | – | – | – | – | – |
| CC1(C)C=C2[C@H]3CC[C@@H]4[C@@]5(C)CC[C@H](O)C(C)(C)[C@@H]5CC[C@@]4(C)[C@]3(C)CC[C@@]2(C(=O)O)CC1 [MOROLIC ACID] | 30.6 | – | 35.9 | 13.4 | – | – | – | – | – | – | 1.54 | 8.77 | 15.2 | 39.2 | – |
| CC1(C)C=C2[C@H]3CC[C@@H]4[C@@]5(C)CCC(=O)C(C)(C)[C@@H]5CC[C@@]4(C)[C@]3(C)CC[C@@]2(C(=O)O)CC1 [MORONIC ACID] | 27.4 | 51.2 | 45.6 | 20.6 | 13.2 | 8 | – | – | – | – | 17.3 | 15.3 | 26.3 | 29.2 | – |
